Laboratory results as given in PubChem BioAssay AID330 (DTP/NCI, 2004).
Several values for one entry are separate records, joined by “and”; a condition that tells them apart may be missing. Equal entries are not always repeated. Inconclusive results and toxic doses are left out. Rule for the calls: active = survival T/C of 150% or more; inactive = T/C below 125% in these data.

Tested on: P388 leukemia ip, CD2F1 mice, survival T/C
Assay: NCI In Vivo Anticancer Drug Screen. Data for tumor model P388 Leukemia (intraperitoneal) in CD2F1 (CDF1) mice
Details: endpoint: median survival time, higher = longer survival
In short: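 Mice carrying the transplanted tumor received test compound or vehicle. Survival was recorded in each group, and the value is the treated-group measurement divided by that of the vehicle-treated control group.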

[1] = dose: 50.0 mg/kg/injection, schedule: Q01DX005 (ip), vehicle: Klucel (hydroxypropylcellulose) (HPC)
[2] = dose: 100.0 mg/kg/injection, schedule: Q01DX005 (ip), vehicle: Klucel (hydroxypropylcellulose) (HPC)
[3] = dose: 200.0 mg/kg/injection, schedule: Q01DX005 (ip), vehicle: Klucel (hydroxypropylcellulose) (HPC)
[4] = dose: 50.0 mg/kg/injection, schedule: Q01DX005 (ip), vehicle: saline with Tween-80
[5] = dose: 100.0 mg/kg/injection, schedule: Q01DX005 (ip), vehicle: saline with Tween-80
[6] = dose: 50.0 mg/kg/injection, schedule: Q01DX009 (ip), vehicle: Klucel (hydroxypropylcellulose) (HPC)
[7] = dose: 100.0 mg/kg/injection, schedule: Q01DX009 (ip), vehicle: saline with Tween-80
[8] = dose: 200.0 mg/kg/injection, schedule: Q01DX009 (ip), vehicle: saline with Tween-80
[9] = dose: 60.0 mg/kg/injection, schedule: Q01DX005 (ip), vehicle: Klucel (hydroxypropylcellulose) (HPC)
[10] = dose: 120.0 mg/kg/injection, schedule: Q01DX005 (ip), vehicle: Klucel (hydroxypropylcellulose) (HPC)
[11] = dose: 240.0 mg/kg/injection, schedule: Q01DX005 (ip), vehicle: Klucel (hydroxypropylcellulose) (HPC)
[12] = dose: 100.0 mg/kg/injection, schedule: Q01DX001 (ip), vehicle: saline with Tween-80
[13] = dose: 200.0 mg/kg/injection, schedule: Q01DX001 (ip), vehicle: saline with Tween-80
[14] = dose: 400.0 mg/kg/injection, schedule: Q01DX001 (ip), vehicle: saline with Tween-80
[15] = dose: 12.5 mg/kg/injection, schedule: Q01DX005 (ip), vehicle: saline with Tween-80
[16] = dose: 25.0 mg/kg/injection, schedule: Q01DX005 (ip), vehicle: saline with Tween-80
[17] = dose: 50.0 mg/kg/injection, schedule: Q01DX009 (ip), vehicle: saline
[18] = dose: 100.0 mg/kg/injection, schedule: Q01DX009 (ip), vehicle: saline
[19] = dose: 200.0 mg/kg/injection, schedule: Q01DX009 (ip), vehicle: saline
[20] = dose: 50.0 mg/kg/injection, schedule: Q01DX009 (ip), vehicle: saline with Tween-80
[21] = dose: 60.0 mg/kg/injection, schedule: Q01DX005 (ip), vehicle: saline with Tween-80
[22] = dose: 120.0 mg/kg/injection, schedule: Q01DX005 (ip), vehicle: saline with Tween-80
[23] = dose: 240.0 mg/kg/injection, schedule: Q01DX005 (ip), vehicle: saline with Tween-80
[24] = dose: 6.25 mg/kg/injection, schedule: Q01DX009 (ip), vehicle: saline with Tween-80

Measured: T/C

O=c1c2cccnc2oc2c(Cl)cc(-c3nn[nH]n3)cc12
inactive: [1] 97 % of control | [2] 111 % of control | [3] 97 % of control

CC(C)=CCC(OC(=O)C=C(C)C)c1cc(O)c2c(O)ccc(O)c2c1O.[O]=[V] (configuration not stated)
inactive: dose: 100.0 mg/kg/injection, schedule: Q04DX002 (ip), vehicle: saline with Tween-80 92 % of control | dose: 200.0 mg/kg/injection, schedule: Q04DX002 (ip), vehicle: saline with Tween-80 92 % of control | dose: 400.0 mg/kg/injection, schedule: Q04DX002 (ip), vehicle: saline with Tween-80 109 % of control

CN=C(N)N/N=C(\C)c1ccc2ccc3ccccc3c2c1
inactive: dose: 50.0 mg/kg/injection, schedule: Q04DX002 (ip), vehicle: saline with Tween-80 105 % of control

CCCOc1cc2c(cc1C(C)(C)c1ccccc1)OCO2
inactive: [4] 95 % of control | [5] 100 % of control

Cc1ccc[n+](Cc2ccccc2Cl)c1
inactive: dose: 12.5 mg/kg/injection, schedule: Q01DX005 (ip), vehicle: Klucel (hydroxypropylcellulose) (HPC) 113 % of control | dose: 25.0 mg/kg/injection, schedule: Q01DX005 (ip), vehicle: Klucel (hydroxypropylcellulose) (HPC) 113 % of control | [1] 101 % of control

CC(C)CCOCCOCCCN1C(=O)C2C3C=CC(C3)C2C1=O (configuration not stated)
inactive: [1] 99 % of control | [2] 100 % of control

CCC1(O)CC(OC2CC(N(C)C)C(OC3CC(O)C(OC4CC(O)C(O)C(C)O4)C(C)O3)C(C)O2)c2c(cc3c(c2O)C(=O)c2c(O)ccc(O)c2C3=O)C1C(=O)OC (configuration not stated)
inactive: dose: 3.13 mg/kg/injection, schedule: Q04DX003 (ip), vehicle: Klucel (hydroxypropylcellulose) (HPC) 105 % of control | dose: 6.25 mg/kg/injection, schedule: Q04DX003 (ip), vehicle: Klucel (hydroxypropylcellulose) (HPC) 99 % of control | dose: 12.5 mg/kg/injection, schedule: Q04DX003 (ip), vehicle: Klucel (hydroxypropylcellulose) (HPC) 105 % of control | dose: 25.0 mg/kg/injection, schedule: Q04DX003 (ip), vehicle: Klucel (hydroxypropylcellulose) (HPC) 118 % of control

COC(=O)c1c(-c2ccc3c(c2)OCO3)cn(C)c1C
inactive: [4] 97 % of control | [5] 91 % of control | dose: 200.0 mg/kg/injection, schedule: Q01DX005 (ip), vehicle: saline with Tween-80 87 % of control

COCC(=O)Nc1ncc([N+](=O)[O-])s1
inactive: [6] 102 % of control | dose: 100.0 mg/kg/injection, schedule: Q01DX009 (ip), vehicle: Klucel (hydroxypropylcellulose) (HPC) 100 % of control | dose: 200.0 mg/kg/injection, schedule: Q01DX009 (ip), vehicle: Klucel (hydroxypropylcellulose) (HPC) 94 % of control

CN(CCl)S(=O)(=O)c1ccccc1
inactive: [7] 90 % of control | [8] 100 % of control | dose: 400.0 mg/kg/injection, schedule: Q01DX009 (ip), vehicle: saline with Tween-80 105 % of control

N#Cc1c2ccc(N)cc2nc2cc(N)ccc12
inactive: [9] 100 % of control | [10] 105 % of control | [11] 118 % of control

Cc1cc([N+](=O)[O-])cc(Br)c1N
inactive: [12] 100 % of control | [13] 95 % of control | [14] 95 % of control

O=NNc1cccnc1Cl
inactive: dose: 1.56 mg/kg/injection, schedule: Q01DX009 (ip), vehicle: water 110 % of control | dose: 3.12 mg/kg/injection, schedule: Q01DX009 (ip), vehicle: water 102 % of control and 108 % of control | dose: 6.25 mg/kg/injection, schedule: Q01DX009 (ip), vehicle: water 99 % of control and 98 % of control | dose: 12.5 mg/kg/injection, schedule: Q01DX009 (ip), vehicle: water 107 % of control and 110 % of control | dose: 25.0 mg/kg/injection, schedule: Q01DX009 (ip), vehicle: water 107 % of control and 117 % of control | dose: 50.0 mg/kg/injection, schedule: Q01DX009 (ip), vehicle: water 105 % of control

CCn1c2ccccc2c2cc(NC(N)=S)ccc21
inactive: [15] 100 % of control | [16] 102 % of control | [4] 100 % of control and 98 % of control

O=C(O)c1ncc2ncccc2c1O
inactive: [17] 107 % of control | [18] 104 % of control | [19] 101 % of control

CCCCS/C=C1\CCc2cc(OC)ccc2C12CC1=C(CCc3cc(OC)ccc31)C(SCCCC)C2 (configuration not stated)
inactive: [20] 94 % of control | [7] 88 % of control | [8] 87 % of control

CCn1c(=O)c2[nH]c(C(F)(F)F)nc2n(CC)c1=O
inactive: dose: 25.0 mg/kg/injection, schedule: Q01DX009 (ip), vehicle: Klucel (hydroxypropylcellulose) (HPC) 86 % of control | [6] 99 % of control

Cc1ccccc1-n1c(=S)n(-c2ccccn2)c2nc3ccccc3nc1/c2=N/Nc1ccccn1
inactive: [4] 110 % of control | [5] 97 % of control

C1SSCSSS1
inactive: [20] 115 % of control | [7] 117 % of control | [8] 111 % of control

COC(=O)Cn1/c(=N\N=C\c2ccc(C)cc2)sc2ccccc21
inactive: [12] 91 % of control | [13] 91 % of control | [14] 89 % of control

CC1C2C1C1C3NN=CC3C2n2c(=O)n(-c3ccccc3)c(=O)n21 (configuration not stated)
inactive: [1] 99 % of control | [2] 100 % of control | [3] 105 % of control

FC(F)(F)C1(C(F)(F)F)OI(Cl)c2ccccc21
inactive: dose: 12.5 mg/kg/injection, schedule: Q04DX002 (ip), vehicle: Klucel (hydroxypropylcellulose) (HPC) 99 % of control | dose: 25.0 mg/kg/injection, schedule: Q04DX002 (ip), vehicle: Klucel (hydroxypropylcellulose) (HPC) 99 % of control | dose: 50.0 mg/kg/injection, schedule: Q04DX002 (ip), vehicle: Klucel (hydroxypropylcellulose) (HPC) 98 % of control

c1ccc(OCc2cn[nH]n2)cc1
inactive: [21] 100 % of control | [22] 103 % of control | [23] 100 % of control

Cc1ccc(C(=O)/C(N)=C/c2ccccn2)cc1
inactive: dose: 100.0 mg/kg/injection, schedule: Q01DX001 (ip), vehicle: saline 107 % of control | dose: 200.0 mg/kg/injection, schedule: Q01DX001 (ip), vehicle: saline 105 % of control | dose: 400.0 mg/kg/injection, schedule: Q01DX001 (ip), vehicle: saline 101 % of control

C/C(=C\C(=O)Nc1ccc(S(=O)(=O)F)cc1)c1ccc([N+](=O)[O-])cc1
inactive: [21] 100 % of control | [22] 102 % of control | [23] 90 % of control

CCOC(=O)Nc1cc(NC/C(=N\O)c2ccc3ccccc3c2)c([N+](=O)[O-])c(N)n1
inactive: [9] 100 % of control | [10] 100 % of control | [11] 96 % of control

OCC1OC(c2ccc(O)cc2O)C(O)C1O (configuration not stated)
inactive: [17] 102 % of control | [18] 96 % of control | dose: 100.0 mg/kg/injection, schedule: Q04DX003 (ip), vehicle: saline 95 % of control | [19] 105 % of control | dose: 200.0 mg/kg/injection, schedule: Q04DX003 (ip), vehicle: saline 98 % of control | dose: 400.0 mg/kg/injection, schedule: Q04DX003 (ip), vehicle: saline 95 % of control

O=C(Nc1cccc2ccccc12)N1c2ccccc2SC12CCCC2
inactive: dose: 1.56 mg/kg/injection, schedule: Q01DX009 (ip), vehicle: saline with Tween-80 104 % of control | dose: 3.13 mg/kg/injection, schedule: Q01DX009 (ip), vehicle: saline with Tween-80 100 % of control | [24] 99 % of control and 94 % of control

CN(C)C(=S)SCN1CCCCC1
inactive: [24] 100 % of control | dose: 12.5 mg/kg/injection, schedule: Q01DX009 (ip), vehicle: saline with Tween-80 101 % of control | dose: 25.0 mg/kg/injection, schedule: Q01DX009 (ip), vehicle: saline with Tween-80 100 % of control | [20] 95 % of control

Cc1cc(C)nc(NS(=O)(=O)c2ccc(NC(=O)C(Cl)(Cl)Cl)cc2)n1
inactive: dose: 6.25 mg/kg/injection, schedule: Q01DX005 (ip), vehicle: saline with Tween-80 104 % of control | [15] 101 % of control | [16] 94 % of control
